In article PMC10771525 (Communications Biology, 2024):
Each block holds one molecule with its values, some of them ahead of it.

How the values were obtained:
[1] = target: LTB4R (Homo sapiens, UniProt Q15722); test: GPCR panel (control), Arrestin, CHO-K1; format: cell-based; details: reference agonist
[2] = target: T1, OXTR (Homo sapiens, UniProt P30559); test: GPCR panel (control), Arrestin, CHO-K1; format: cell-based; details: reference agonist
T1 construct: expressed in transfected cells; host or cells: CHO-K1
T1 sequence (P30559 whole entry): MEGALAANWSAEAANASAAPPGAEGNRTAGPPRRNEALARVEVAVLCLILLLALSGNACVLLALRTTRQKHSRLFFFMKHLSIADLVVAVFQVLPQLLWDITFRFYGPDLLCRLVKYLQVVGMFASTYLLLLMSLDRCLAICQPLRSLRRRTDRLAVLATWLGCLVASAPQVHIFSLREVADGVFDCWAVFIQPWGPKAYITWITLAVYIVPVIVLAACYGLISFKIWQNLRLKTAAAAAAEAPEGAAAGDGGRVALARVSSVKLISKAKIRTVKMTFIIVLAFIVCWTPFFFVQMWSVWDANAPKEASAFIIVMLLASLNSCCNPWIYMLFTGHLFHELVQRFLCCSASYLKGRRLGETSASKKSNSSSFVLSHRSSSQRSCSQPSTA

[3] = target: HTR5A (Homo sapiens, UniProt P47898); test: GPCR panel (control), Arrestin, U2OS; format: cell-based; details: reference agonist
HTR5A, sequence (P47898 whole entry): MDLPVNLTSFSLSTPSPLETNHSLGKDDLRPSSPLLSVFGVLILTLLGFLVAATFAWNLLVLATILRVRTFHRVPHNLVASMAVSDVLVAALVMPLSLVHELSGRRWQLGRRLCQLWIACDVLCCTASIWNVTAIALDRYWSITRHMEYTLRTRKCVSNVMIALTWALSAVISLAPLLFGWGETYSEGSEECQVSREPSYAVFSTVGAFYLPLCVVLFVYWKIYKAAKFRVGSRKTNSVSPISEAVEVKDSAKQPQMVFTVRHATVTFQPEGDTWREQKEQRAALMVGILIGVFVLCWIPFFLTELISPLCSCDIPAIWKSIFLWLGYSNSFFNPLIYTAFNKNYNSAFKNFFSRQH

[4] = target: HTR2A (Homo sapiens, UniProt P28223); details: reference agonist, U2OS, Arrestin
HTR2A, sequence (P28223 whole entry): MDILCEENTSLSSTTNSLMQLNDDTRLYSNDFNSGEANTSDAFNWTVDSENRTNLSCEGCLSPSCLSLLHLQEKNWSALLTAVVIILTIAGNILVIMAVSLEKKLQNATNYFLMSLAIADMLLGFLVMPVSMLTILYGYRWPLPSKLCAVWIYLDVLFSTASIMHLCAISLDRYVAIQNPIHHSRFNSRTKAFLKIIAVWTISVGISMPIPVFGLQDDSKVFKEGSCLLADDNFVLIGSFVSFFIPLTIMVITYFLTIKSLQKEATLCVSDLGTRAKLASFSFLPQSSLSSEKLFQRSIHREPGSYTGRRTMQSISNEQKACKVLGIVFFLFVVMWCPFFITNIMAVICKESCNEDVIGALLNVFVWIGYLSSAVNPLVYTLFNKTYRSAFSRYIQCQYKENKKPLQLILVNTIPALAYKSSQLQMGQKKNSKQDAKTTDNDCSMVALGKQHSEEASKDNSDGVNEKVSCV

[5] = target: HTR1E (Homo sapiens, UniProt P28566); test: GPCR panel (control), Arrestin, U2OS; format: cell-based; details: reference agonist
HTR1E, sequence (P28566 whole entry): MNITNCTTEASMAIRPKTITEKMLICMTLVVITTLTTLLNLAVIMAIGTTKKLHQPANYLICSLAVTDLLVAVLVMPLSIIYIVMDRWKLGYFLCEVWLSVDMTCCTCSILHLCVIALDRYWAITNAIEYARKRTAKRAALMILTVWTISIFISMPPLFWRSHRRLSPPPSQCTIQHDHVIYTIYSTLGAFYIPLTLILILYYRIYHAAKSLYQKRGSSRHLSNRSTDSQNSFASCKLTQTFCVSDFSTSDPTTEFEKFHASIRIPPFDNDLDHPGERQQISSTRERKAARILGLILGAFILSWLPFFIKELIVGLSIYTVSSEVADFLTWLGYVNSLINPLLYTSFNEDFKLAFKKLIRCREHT

[6] = target: HTR1F (Homo sapiens, UniProt P30939); test: GPCR panel (control), Arrestin, U2OS; format: cell-based; details: reference agonist
HTR1F, sequence (P30939 whole entry): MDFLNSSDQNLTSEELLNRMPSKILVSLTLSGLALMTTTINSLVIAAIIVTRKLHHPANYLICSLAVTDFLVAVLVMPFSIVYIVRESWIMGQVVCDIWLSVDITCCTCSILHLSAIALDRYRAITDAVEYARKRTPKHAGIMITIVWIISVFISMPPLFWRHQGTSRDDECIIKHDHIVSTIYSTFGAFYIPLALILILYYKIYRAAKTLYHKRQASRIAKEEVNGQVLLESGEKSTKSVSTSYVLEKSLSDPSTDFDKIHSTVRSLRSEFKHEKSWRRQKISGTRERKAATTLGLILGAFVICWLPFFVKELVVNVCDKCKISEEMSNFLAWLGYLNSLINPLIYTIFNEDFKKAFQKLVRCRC

[7] = target: HTR1B (Homo sapiens, UniProt P28222); test: GPCR panel (control), Arrestin, U2OS; format: cell-based; details: reference agonist
HTR1B, sequence (P28222 whole entry): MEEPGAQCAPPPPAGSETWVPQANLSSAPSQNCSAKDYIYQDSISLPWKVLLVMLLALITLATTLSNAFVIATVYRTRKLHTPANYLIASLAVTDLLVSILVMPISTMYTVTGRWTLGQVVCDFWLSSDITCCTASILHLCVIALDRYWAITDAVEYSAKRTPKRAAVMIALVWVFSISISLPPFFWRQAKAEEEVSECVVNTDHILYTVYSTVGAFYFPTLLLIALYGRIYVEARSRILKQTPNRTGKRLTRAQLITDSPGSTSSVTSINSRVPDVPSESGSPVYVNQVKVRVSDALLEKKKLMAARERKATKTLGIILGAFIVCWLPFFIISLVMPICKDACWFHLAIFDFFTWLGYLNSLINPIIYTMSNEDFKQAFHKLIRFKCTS

[8] = target: AGTR1 (Homo sapiens, UniProt P30556); details: reference agonist, AGTR1, CHO-K1, Arrestin
AGTR1, sequence (P30556 whole entry): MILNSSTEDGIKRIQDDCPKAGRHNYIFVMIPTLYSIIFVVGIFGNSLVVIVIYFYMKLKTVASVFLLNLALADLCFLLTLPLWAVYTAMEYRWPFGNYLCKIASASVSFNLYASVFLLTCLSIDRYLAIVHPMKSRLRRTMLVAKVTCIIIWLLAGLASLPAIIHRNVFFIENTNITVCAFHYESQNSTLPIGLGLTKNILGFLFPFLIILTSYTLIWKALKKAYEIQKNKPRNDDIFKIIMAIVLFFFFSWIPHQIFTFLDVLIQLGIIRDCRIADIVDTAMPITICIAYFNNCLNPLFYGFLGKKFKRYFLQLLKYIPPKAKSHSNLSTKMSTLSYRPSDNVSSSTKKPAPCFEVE

[9] = system: MRGPRX2; details: MRGPRX2 recombinantly expressed in HEK293 cells; read-out: EC50, calcium mobilization assays; cited from earlier work
Description: Other CXCLs contain sequences that are similar to the proposed pentapeptidic motif, but are either deeply buried in the typical 3D structure of the chemokine, or located near acidic amino acids, that are not tolerated by the negatively charged binding pocket of MRGPRX2 (see sequence alignment in Supplementary Fig. 4 for further information). […] No ...

[10] = target: T2, MRGPRX2 (Homo sapiens, UniProt Q96LB1); test: GPCR panel (control), Arrestin, CHO-K1; format: cell-based; details: reference agonist
T2 sequence (Q96LB1 1-330): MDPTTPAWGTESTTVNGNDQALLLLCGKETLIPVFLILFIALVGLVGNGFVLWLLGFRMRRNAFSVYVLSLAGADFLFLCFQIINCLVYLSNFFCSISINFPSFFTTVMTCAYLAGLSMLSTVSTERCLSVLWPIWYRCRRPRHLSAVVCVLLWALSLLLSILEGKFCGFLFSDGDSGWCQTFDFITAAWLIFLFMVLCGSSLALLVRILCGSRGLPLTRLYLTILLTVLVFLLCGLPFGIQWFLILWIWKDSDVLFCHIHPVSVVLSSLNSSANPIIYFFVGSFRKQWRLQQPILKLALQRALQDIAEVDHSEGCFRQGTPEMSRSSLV

[11] = target: MC1R (Homo sapiens, UniProt Q01726); details: reference agonist, CHO-K1, Arrestin
MC1R, sequence (Q01726 whole entry): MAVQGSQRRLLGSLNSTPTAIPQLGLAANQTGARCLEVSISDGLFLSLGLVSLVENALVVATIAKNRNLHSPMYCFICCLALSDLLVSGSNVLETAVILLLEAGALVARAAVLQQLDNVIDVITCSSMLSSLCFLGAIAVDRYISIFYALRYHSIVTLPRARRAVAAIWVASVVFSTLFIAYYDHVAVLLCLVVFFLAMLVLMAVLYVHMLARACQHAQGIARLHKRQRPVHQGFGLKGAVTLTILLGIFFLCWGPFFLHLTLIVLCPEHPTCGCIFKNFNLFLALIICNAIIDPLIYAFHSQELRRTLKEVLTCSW

[12] = target: MC3R (Homo sapiens, UniProt P41968); details: reference agonist, CHO-K1, Arrestin
[13] = target: MC5R (Homo sapiens, UniProt P33032); details: reference agonist, CHO-K1, Arrestin
MC5R, sequence (P33032 whole entry): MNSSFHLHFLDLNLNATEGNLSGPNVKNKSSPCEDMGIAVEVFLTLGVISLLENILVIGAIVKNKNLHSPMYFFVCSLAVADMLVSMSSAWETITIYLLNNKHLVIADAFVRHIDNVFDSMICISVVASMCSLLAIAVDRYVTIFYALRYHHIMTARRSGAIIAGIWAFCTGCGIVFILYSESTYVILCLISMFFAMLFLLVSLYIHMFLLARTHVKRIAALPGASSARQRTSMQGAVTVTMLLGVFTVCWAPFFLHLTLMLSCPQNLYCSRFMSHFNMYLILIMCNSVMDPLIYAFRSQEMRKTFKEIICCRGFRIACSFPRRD

[14] = target: T3, MLNR (Homo sapiens, UniProt O43193); test: GPCR panel (control), Arrestin, CHO-K1; format: cell-based; details: reference agonist
T3 construct: expressed in transfected cells; host or cells: CHO-K1

[15] = target: T4, NMU1R (Homo sapiens, UniProt Q9HB89); test: GPCR panel (control), Arrestin, U2OS; format: cell-based; details: reference agonist
T4 construct: expressed in transfected cells; host or cells: U2OS
T4 sequence (Q9HB89 whole entry): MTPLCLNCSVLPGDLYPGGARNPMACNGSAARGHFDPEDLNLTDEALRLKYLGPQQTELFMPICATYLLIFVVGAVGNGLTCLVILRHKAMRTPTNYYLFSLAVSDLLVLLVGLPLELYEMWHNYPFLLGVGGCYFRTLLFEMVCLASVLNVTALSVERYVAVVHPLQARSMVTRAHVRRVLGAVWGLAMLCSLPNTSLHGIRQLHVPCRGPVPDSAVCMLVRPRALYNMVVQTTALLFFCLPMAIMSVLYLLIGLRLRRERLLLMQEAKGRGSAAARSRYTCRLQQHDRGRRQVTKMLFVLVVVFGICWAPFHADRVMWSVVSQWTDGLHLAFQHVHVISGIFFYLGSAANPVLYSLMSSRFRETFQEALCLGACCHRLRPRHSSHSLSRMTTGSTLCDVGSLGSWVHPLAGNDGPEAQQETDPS

[16] = target: OPRL1 (Homo sapiens, UniProt P41146); details: reference agonist, OPRL1, CHO-K1, Arrestin
OPRL1, sequence (P41146 whole entry): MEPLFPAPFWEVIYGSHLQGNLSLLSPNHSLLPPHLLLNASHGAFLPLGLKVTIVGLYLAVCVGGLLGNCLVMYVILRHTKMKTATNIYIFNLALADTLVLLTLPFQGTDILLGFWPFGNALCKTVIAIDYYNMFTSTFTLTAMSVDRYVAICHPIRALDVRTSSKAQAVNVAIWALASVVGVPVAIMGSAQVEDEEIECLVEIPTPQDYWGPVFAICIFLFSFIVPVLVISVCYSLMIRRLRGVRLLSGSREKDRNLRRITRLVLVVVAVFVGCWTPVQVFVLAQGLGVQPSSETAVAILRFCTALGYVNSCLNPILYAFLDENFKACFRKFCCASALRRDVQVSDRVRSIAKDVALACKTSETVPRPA

[17] = target: T5, PPYR1 (NPY4) (Homo sapiens, UniProt P50391); test: GPCR panel (control), Arrestin, CHO-K1; format: cell-based; details: reference agonist
T5 construct: expressed in transfected cells; host or cells: CHO-K1
T5 sequence (P50391 whole entry): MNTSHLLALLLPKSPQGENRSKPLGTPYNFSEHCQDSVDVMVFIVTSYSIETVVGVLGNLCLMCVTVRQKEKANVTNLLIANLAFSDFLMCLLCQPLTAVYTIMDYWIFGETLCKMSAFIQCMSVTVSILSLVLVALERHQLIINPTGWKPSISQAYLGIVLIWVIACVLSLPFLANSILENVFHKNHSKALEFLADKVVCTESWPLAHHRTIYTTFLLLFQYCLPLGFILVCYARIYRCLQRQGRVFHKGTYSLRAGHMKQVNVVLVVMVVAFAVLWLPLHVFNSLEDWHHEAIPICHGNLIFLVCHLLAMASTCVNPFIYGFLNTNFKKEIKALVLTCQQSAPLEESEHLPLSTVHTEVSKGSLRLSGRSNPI

[18] = target: OPRM1 (Homo sapiens, UniProt P35372); details: reference agonist, OPRM1, U2OS, Arrestin
[19] = target: T2, MRGPRX2; test: calcium mobilization assay, CHEM-1 cells recombinantly expressing MRGPRX2; format: cell-based; parameters: host or cells: CHEM-1 adherent rat hematopoietic cells; details: for pEC50: Fig. 3d
Description: To confirm the initial results obtained in the β-arrestin recruitment assays, we established calcium mobilization assays in two different recombinant cell lines, CHEM-1 and LN229 cells, respectively. CHEM-1 cells are adherent rat hematopoietic cells with a high endogenous expression level of the promiscuous Gα15 protein enabling the measuring of calcium signaling of a large variety of GPCRs. […]. Subsequently, we employed recombinant human glioblastoma LN229 cells, a human cell line derived from glioblastoma multiforme tumors. […].
The cell lines CHEM1 and CHEM1-MRGPRX2 are adherent rat cell lines (HTSCHEM-1RTA, HTS058RTA, Merck-Millipore, Darmstadt, Germany); which were cultured under standard cell culture conditions.
A cell-based fluorometric assay was employed for the determination of intracellular calcium release using Fluo-8. Cells were seeded into microtiter plates and incubated under standard cell culture conditions. After 24 h the medium was removed, and the cells were washed with phosphate-buffered saline (PBS). The cells were incubated with loading buffer (40 ml PBS with 2 mM Ca^2+, 800 µl of brilliant black solution (2%), 732 µl of probenecid solution (0.5 M) in 1 N NaOH, 400 µL of pluronic (10%) in water, and 152 µl of Fluo-8 (5.7 ng/ml in water)) for 30 min. For fluorescence readout and compound testing a FLIPR tetra system was used according to the manufacture’s protocol (Molecular Devices, CA 94089- 1136, USA).

[20] = target: T2, MRGPRX2; test: β-arrestin recruitment assay (enzyme complementation), β-arrestin-CHO cells recombinantly expressing MRGPRX2; format: cell-based; details: 90 min incubation, chemiluminescence, means ± SD of 3 to 5 independent experiments in duplicates, read-out: EC50 ± SD, β-arrestin assays
[21] = target: T2, MRGPRX2; test: calcium mobilization assay, LN229 cells recombinantly expressing MRGPRX2; format: cell-based; details: Fluo-4, means ± SD of 3 to 4 independent experiments in duplicates, read-out: EC50 ± SD, calcium mobilization assays
Method: LN229 glioblastoma cells ATCC®, CRL-2611TM, were a kind gift from Prof. Dr. B. Scheffler (University of Bonn, Germany). LN229 cells stably expressing MRGPRX2 were generated by retroviral transfection. Briefly, GP^+envAM-12 packaging cells (LGC Standards GmbH, Wesel, Germany), derived from mouse fibroblasts, were seeded at a density of 1.5 × 10^6 cells per T25-flask in 5 mL of Dulbecco’s Modified Eagle Medium (DMEM, Thermo Fisher Scientific, Waltham, MA, USA), supplemented with 10% fetal calf serum (FCS), 100 U/mL of penicillin (PAN-Biotech) and 100 µg/mL of streptomycin (PAN-Biotech). Packaging cells were transfected with pLXSN-MRGPRX2 and pcDNA3-VSV-G using Lipofectamine 2000 according to the manufacturer’s instructions (Thermo Fisher Scientific, Darmstadt, Germany). The medium was exchanged for DMEM supplemented with 10% FCS, 100 U/mL of penicillin, 100 µg/mL of streptomycin and 3 mM of sodium butyrate (stock solution: 500 mM in water, sterile-filtered) to enhance virus production. To produce retroviral particles, cells were cultivated for 48 h at 32°C and 5% CO2. On day 4, the target cells LN229 were seeded into T25 cell culture flasks (5 × 10^5 cell). […]
(§1) […]. […] For the determination of baseline fluorescence, HBSS buffer without additives was used. […]

[22] = target: T6, MRGPRB2 (Mus musculus, UniProt Q3KNA1); test: calcium mobilization assay, 1321N1 astrocytoma cells stably expressing MRGPRB2; format: cell-based
T6 construct: expressed in transfected cells; host or cells: 1321N1 astrocytoma cells (lentiviral, pLVX MRGPRB2-IRES-mCherry)
T6 sequence (Q3KNA1 1-338): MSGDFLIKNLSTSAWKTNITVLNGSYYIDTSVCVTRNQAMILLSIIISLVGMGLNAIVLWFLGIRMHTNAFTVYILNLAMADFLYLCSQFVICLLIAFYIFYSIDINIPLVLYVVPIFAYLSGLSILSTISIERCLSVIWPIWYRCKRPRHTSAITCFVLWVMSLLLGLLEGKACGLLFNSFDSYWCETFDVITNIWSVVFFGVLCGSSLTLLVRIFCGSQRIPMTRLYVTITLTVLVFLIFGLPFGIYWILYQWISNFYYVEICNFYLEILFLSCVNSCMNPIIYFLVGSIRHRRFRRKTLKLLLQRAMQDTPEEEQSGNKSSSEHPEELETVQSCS
Method: 1321N1 Astrocytoma cells were purchased from Sigma Aldrich-Merck KGaA (Darmstadt, Germany, 86030402). The cells were transfected with MRGPRB2 using lentiviral transfection. 1.5 × 10^6 Lenti-X 293 T cells were seeded into each T25 cell culture flask in 5 mL of DMEM, supplemented with 10% FCS, 100 U/mL of penicillin and 100 µg/mL of streptomycin. After 20 h of incubation at 37°C and 5% CO2, when the cells were grown to 80–90% confluence, the medium was exchanged for 5 mL DMEM with 10% FCS without antibiotics and incubated for 4 h. Subsequently, transfection took place using Xfect polymer according to the manufacturer’s protocol (Clontech, Takara Bio Europe, France). The pLVX MRGPRB2-IRES-mCherry-Xfect mixture was added to the packaging cells and they were incubated overnight. […] To know how many astrocytoma cells expressed the target receptor, cells were analyzed under the fluorescence microscope at the m-cherry excitation wavelength of 587 nm using its emission wavelength of 610 nm. Subsequently, fluorescent single clones were isolated by fluorescence-activated cell sorting.
as §1

LTB4R, sequence (Q15722 whole entry): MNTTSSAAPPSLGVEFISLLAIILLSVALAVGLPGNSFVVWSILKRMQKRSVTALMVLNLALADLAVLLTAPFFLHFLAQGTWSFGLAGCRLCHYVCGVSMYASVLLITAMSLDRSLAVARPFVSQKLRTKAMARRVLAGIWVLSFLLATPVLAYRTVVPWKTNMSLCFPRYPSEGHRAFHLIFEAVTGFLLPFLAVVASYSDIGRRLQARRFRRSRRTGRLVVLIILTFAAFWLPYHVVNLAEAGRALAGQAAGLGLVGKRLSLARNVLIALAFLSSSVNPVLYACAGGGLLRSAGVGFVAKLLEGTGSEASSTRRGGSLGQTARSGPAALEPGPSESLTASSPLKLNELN

EC80 [1]: 5000 nM
Molecule: CCCCC/C=C\C[C@@H](O)/C=C/C=C/C=C\[C@@H](O)CCCC(=O)O [Leukotriene B4]

EC80 [2]: 280 nM
Molecule: CC[C@H](C)[C@@H]1NC(=O)[C@H](Cc2ccc(O)cc2)NC(=O)[C@@H](N)CSSC[C@@H](C(=O)N2CCC[C@H]2C(=O)N[C@@H](CC(C)C)C(=O)NCC(N)=O)NC(=O)[C@H](CC(N)=O)NC(=O)[C@H](CCC(N)=O)NC1=O [Oxytocin]

Molecule: NCCc1c[nH]c2ccc(O)cc12 [Serotonin]
EC80 [3]: 630 nM | EC80 [4]: 7100 nM | EC80 [5]: 1300 nM | EC80 [6]: 6600 nM | EC80 [7]: 7700 nM

Molecule: Angiotensin II
EC80 [8]: 150 nM

Molecule: CXCL4: chemokine, also known as platelet factor 4
EC50 [9]: 9000 nM

EC80 [10]: 8100 nM
Molecule: Cortistatin-14

Molecule: Melanotan II
EC80 [11]: 30 nM | EC80 [12]: 37 nM | EC80 [13]: 340 nM

Molecule: Motilin
EC80 [14]: 110 nM

EC80 [15]: 92 nM
Molecule: Neuromedin U-25

Molecule: Orphanin FQ
EC80 [16]: 150 nM

Molecule: Pancreatic polypeptide
EC80 [17]: 62 nM

Molecule: met-Enkephalin
EC80 [18]: 54000 nM

EC50 ([19]; CHEM-1 cells recombinantly expressing MRGPRX2, Fluo-8, FLIPR, read-out: EC50, calcium mobilization assays): 889 nM | pEC50 ([19]; replicate column 1): 5.955 | pEC50 ([19]; replicate column 2): 6.033 | pEC50 ([19]; replicate column 3): 6.061 | pEC50 ([19]; replicate column 4): 6.051 | EC50 [20]: 905 ± 548 nM | EC50 [21]: 504 nM | pEC50 MRGPRB2 ([22]; Fig. 6c source data, mean, SD and N in columns beside it (N = 2-3)): 6.032 | Mean of MRGPRB2 (pEC50) ([22]; Fig. 6c, mean as listed in the unpaired t test with Welch correction, MRGPRX2 vs. MRGPRB2): 6.03
B1: CXCL14: mature 77-amino acid chemokine, 9.4 kDa, also known as BRAK; purchased from BIOZOL (protein)
chain: SKCKCSRKGPKIRYSDVKKLEMKPKYPHCEEKMVIITTKSVSRYRGQEHCLHPKLQSTKRFIKWYNAWNEKRRVYEE
modifications: two disulfide bonds (native chemokine fold); entity numbering = mature + 1
